Patent publication EP3072956A1, “Selective culture medium for polymyxin-resistant, gram-negative bacteria” (priority 2015, dated 2016)

Legend:
Experiment in all cases: MIC determination by broth microdilution (MHB-CA, CLSI)
Type in all cases: cell-based
S. marcescens = conditions: strain Smar
Procedure: (§1) Determination of MIC values were performed by broth microdilution in Cation-Adjusted Mueller-Hinton broth (MHB-CA) according to the CLSI guidelines (Clinical and Laboratory Standards Institute). Polymyxin B and colistin (Sigma-Aldrich, Saint-Louis) were tested with or without Tween 80 over a range dilution from 0.12 to 128 µg/ml. The surfactant Tween 80, at a final concentration of 0.002%, prevents the binding of polymyxins to multi-array plastic panel. Actually, the use of Tween for determination of MIC of polymyxins is still debatable. MHB-CA broth and 5.10^5 CFU/ml of each tested strain were distributed in each well. Following the EUCAST breakpoints, strains were characterized as susceptible or resistant to polymyxins.

E. cloacae = test system: E. cloacae
Procedure: as §1

B. cepacia = conditions: strain Bcep
Procedure: as §1

M. morganii = conditions: strain Mmor
Procedure: as §1

A. baumannii = test system: A. baumannii
Procedure: as §1

H. alvei = conditions: strain ER
Procedure: as §1

S. maltophilia = test system: S. maltophilia
Procedure: as §1

P. aeruginosa = test system: P. aeruginosa
Procedure: as §1

P. vulgaris = conditions: strain Pvul
Procedure: as §1

P. mirabilis = conditions: strain Pmir
Procedure: as §1

E. aerogenes = conditions: strain 36F8
Procedure: as §1

E. coli = test system: E. coli
Procedure: as §1

P. stuartii = conditions: strain Pstu
Procedure: as §1

K. pneumoniae = test system: K. pneumoniae
Procedure: as §1

Substance polymyxin B has an MIC (S. marcescens; With Tween80) of over 128 mg/L, an MIC (S. marcescens; Without Tween80) of over 128 mg/L and an MIC (E. cloacae; strain 38A10, With Tween80) of 0.25 mg/L. The MIC (E. cloacae; strain 38A10, Without Tween80) was 0.25 mg/L, the MIC (E. cloacae; strain C28, With Tween80) was 16 mg/L and the MIC (E. cloacae; strain C28, Without Tween80) was 16 mg/L. For the same substance, the MIC (E. cloacae; strain C129, With Tween80) was 0.25 mg/L, the MIC (E. cloacae; strain C129, Without Tween80) was 0.25 mg/L and the MIC (E. cloacae; strain C144, With Tween80) was 0.12 mg/L. It also gave an MIC (E. cloacae; strain C144, Without Tween80) of 0.25 mg/L, an MIC (E. cloacae; strain HM, With Tween80) of over 128 mg/L and an MIC (E. cloacae; strain HM, Without Tween80) of over 128 mg/L. It also gave an MIC (B. cepacia; With Tween80) of over 128 mg/L, an MIC (B. cepacia; Without Tween80) of over 128 mg/L and an MIC (M. morganii; With Tween80) of over 128 mg/L. The MIC (M. morganii; Without Tween80) was over 128 mg/L, the MIC (A. baumannii; strain 38B9, With Tween80) was 0.25 mg/L and the MIC (A. baumannii; strain 38B9, Without Tween80) was 0.5 mg/L. For the same substance, the MIC (A. baumannii; strain Aba6, With Tween80) was 128 mg/L, the MIC (A. baumannii; strain Aba6, Without Tween80) was 128 mg/L and the MIC (A. baumannii; strain C105, With Tween80) was 0.12 mg/L. The MIC (A. baumannii; strain C105, Without Tween80) was 0.5 mg/L, the MIC (H. alvei; With Tween80) was 16 mg/L and the MIC (H. alvei; Without Tween80) was 8 mg/L. For the same substance, the MIC (S. maltophilia; strain Sm2, With Tween80) was over 128 mg/L, the MIC (S. maltophilia; strain Sm2, Without Tween80) was over 128 mg/L and the MIC (S. maltophilia; strain SmA51, With Tween80) was 32 mg/L. The MIC (S. maltophilia; strain SmA51, Without Tween80) was 32 mg/L, the MIC (P. aeruginosa; strain 38J8, With Tween80) was 0.25 mg/L and the MIC (P. aeruginosa; strain 38J8, Without Tween80) was 1 mg/L. For the same substance, the MIC (P. aeruginosa; strain ATCC 27853, With Tween80) was 0.12 mg/L, the MIC (P. aeruginosa; strain ATCC 27853, Without Tween80) was 0.5 mg/L and the MIC (P. aeruginosa; strain C111, With Tween80) was 0.25 mg/L. For the same substance, the MIC (P. aeruginosa; strain C111, Without Tween80) was 1 mg/L, the MIC (P. aeruginosa; strain C131, With Tween80) was 0.25 mg/L and the MIC (P. aeruginosa; strain C131, Without Tween80) was 1 mg/L. The MIC (P. aeruginosa; strain C133, With Tween80) was 0.5 mg/L, the MIC (P. aeruginosa; strain C133, Without Tween80) was 1 mg/L and the MIC (P. vulgaris; With Tween80) was over 128 mg/L. The MIC (P. vulgaris; Without Tween80) was over 128 mg/L, the MIC (P. mirabilis; With Tween80) was over 128 mg/L and the MIC (P. mirabilis; Without Tween80) was over 128 mg/L. The MIC (E. aerogenes; With Tween80) was 0.12 mg/L, the MIC (E. aerogenes; Without Tween80) was 0.12 mg/L and the MIC (E. coli; strain 36A6, With Tween80) was 0.12 mg/L. The MIC (E. coli; strain 36A6, Without Tween80) was 0.12 mg/L, the MIC (E. coli; strain 36D7, With Tween80) was 0.12 mg/L and the MIC (E. coli; strain 36D7, Without Tween80) was 0.12 mg/L. It also gave an MIC (E. coli; strain 38D6, With Tween80) of 0.12 mg/L, an MIC (E. coli; strain 38D6, Without Tween80) of 0.12 mg/L and an MIC (E. coli; strain 27563, With Tween80) of 8 mg/L. For the same substance, the MIC (E. coli; strain 27563, Without Tween80) was 16 mg/L, the MIC (E. coli; strain 27837, With Tween80) was 8 mg/L and the MIC (E. coli; strain 27837, Without Tween80) was 8 mg/L. It also gave an MIC (E. coli; strain 27850, With Tween80) of 8 mg/L, an MIC (E. coli; strain 27850, Without Tween80) of 8 mg/L and an MIC (E. coli; strain 27852, With Tween80) of 4 mg/L. For the same substance, the MIC (E. coli; strain 27852, Without Tween80) was 4 mg/L, the MIC (E. coli; strain 28509, With Tween80) was 2 mg/L and the MIC (E. coli; strain 28509, Without Tween80) was 2 mg/L. It also gave an MIC (E. coli; strain 30742, With Tween80) of 4 mg/L, an MIC (E. coli; strain 30742, Without Tween80) of 4 mg/L and an MIC (E. coli; strain ATCC 25922, With Tween80) of 0.12 mg/L. It also gave an MIC (E. coli; strain ATCC 25922, Without Tween80) of 0.25 mg/L, an MIC (E. coli; strain C140, With Tween80) of 0.12 mg/L and an MIC (E. coli; strain C140, Without Tween80) of 0.25 mg/L. The MIC (E. coli; strain Eco OmpC-OmpF-, With Tween80) was 0.12 mg/L, the MIC (E. coli; strain Eco OmpC-OmpF-, Without Tween80) was 0.125 mg/L and the MIC (P. stuartii; With Tween80) was over 128 mg/L. The MIC (P. stuartii; Without Tween80) was over 128 mg/L, the MIC (K. pneumoniae; strain 12E2, With Tween80) was 64 mg/L and the MIC (K. pneumoniae; strain 12E2, Without Tween80) was 64 mg/L. The MIC (K. pneumoniae; strain 13G2, With Tween80) was 64 mg/L, the MIC (K. pneumoniae; strain 13G2, Without Tween80) was 64 mg/L and the MIC (K. pneumoniae; strain 18J1, With Tween80) was 32 mg/L. It also gave an MIC (K. pneumoniae; strain 18J1, Without Tween80) of 32 mg/L, an MIC (K. pneumoniae; strain 36A4, With Tween80) of 0.25 mg/L and an MIC (K. pneumoniae; strain 36A4, Without Tween80) of 0.25 mg/L. For the same substance, the MIC (K. pneumoniae; strain 36A5, With Tween80) was 0.12 mg/L, the MIC (K. pneumoniae; strain 36A5, Without Tween80) was 0.12 mg/L and the MIC (K. pneumoniae; strain 36A7, With Tween80) was 0.5 mg/L. The MIC (K. pneumoniae; strain 36A7, Without Tween80) was 0.5 mg/L, the MIC (K. pneumoniae; strain 38B7, With Tween80) was 0.5 mg/L and the MIC (K. pneumoniae; strain 38B7, Without Tween80) was 0.12 mg/L. The MIC (K. pneumoniae; strain 75b, With Tween80) was 128 mg/L, the MIC (K. pneumoniae; strain 75b, Without Tween80) was 128 mg/L and the MIC (K. pneumoniae; strain 1118, With Tween80) was 32 mg/L. It also gave an MIC (K. pneumoniae; strain 1118, Without Tween80) of 32 mg/L, an MIC (K. pneumoniae; strain 1515, With Tween80) of 32 mg/L and an MIC (K. pneumoniae; strain 1515, Without Tween80) of 32 mg/L. The MIC (K. pneumoniae; strain AF1b, With Tween80) was 8 mg/L, the MIC (K. pneumoniae; strain AF1b, Without Tween80) was 8 mg/L and the MIC (K. pneumoniae; strain BICb, With Tween80) was 128 mg/L. It also gave an MIC (K. pneumoniae; strain BICb, Without Tween80) of 128 mg/L, an MIC (K. pneumoniae; strain C1, With Tween80) of 64 mg/L and an MIC (K. pneumoniae; strain C1, Without Tween80) of 128 mg/L. The MIC (K. pneumoniae; strain C3, With Tween80) was 16 mg/L, the MIC (K. pneumoniae; strain C3, Without Tween80) was 32 mg/L and the MIC (K. pneumoniae; strain C7, With Tween80) was over 128 mg/L. It also gave an MIC (K. pneumoniae; strain C7, Without Tween80) of over 128 mg/L, an MIC (K. pneumoniae; strain C11, With Tween80) of 64 mg/L and an MIC (K. pneumoniae; strain C11, Without Tween80) of 128 mg/L. For the same substance, the MIC (K. pneumoniae; strain C12, With Tween80) was 64 mg/L, the MIC (K. pneumoniae; strain C12, Without Tween80) was 128 mg/L and the MIC (K. pneumoniae; strain C16, With Tween80) was 64 mg/L. The MIC (K. pneumoniae; strain C16, Without Tween80) was 32 mg/L, the MIC (K. pneumoniae; strain C21, With Tween80) was 128 mg/L and the MIC (K. pneumoniae; strain C21, Without Tween80) was 128 mg/L. It also gave an MIC (K. pneumoniae; strain C22, With Tween80) of 64 mg/L, an MIC (K. pneumoniae; strain C22, Without Tween80) of 64 mg/L and an MIC (K. pneumoniae; strain C25, With Tween80) of 32 mg/L. The MIC (K. pneumoniae; strain C25, Without Tween80) was 64 mg/L, the MIC (K. pneumoniae; strain C26, With Tween80) was 128 mg/L and the MIC (K. pneumoniae; strain C26, Without Tween80) was 128 mg/L. For the same substance, the MIC (K. pneumoniae; strain C27, With Tween80) was over 128 mg/L, the MIC (K. pneumoniae; strain C27, Without Tween80) was over 128 mg/L and the MIC (K. pneumoniae; strain C112, With Tween80) was 0.25 mg/L. The MIC (K. pneumoniae; strain C112, Without Tween80) was 0.25 mg/L, the MIC (K. pneumoniae; strain C115, With Tween80) was 0.12 mg/L and the MIC (K. pneumoniae; strain C115, Without Tween80) was 0.5 mg/L. For the same substance, the MIC (K. pneumoniae; strain C130, With Tween80) was 0.5 mg/L, the MIC (K. pneumoniae; strain C130, Without Tween80) was 0.25 mg/L and the MIC (K. pneumoniae; strain C132, With Tween80) was 0.5 mg/L. It also gave an MIC (K. pneumoniae; strain C132, Without Tween80) of 0.25 mg/L, an MIC (K. pneumoniae; strain Kp OmpK3 5-OmpK3 6-, With Tween80) of 0.12 mg/L and an MIC (K. pneumoniae; strain Kp OmpK3 5-OmpK3 6-, Without Tween80) of 0.125 mg/L. For the same substance, the MIC (K. pneumoniae; strain Sa, With Tween80) was 64 mg/L, the MIC (K. pneumoniae; strain Sa, Without Tween80) was 64 mg/L and the MIC (K. pneumoniae; strain T1b, With Tween80) was 64 mg/L. For the same substance, the MIC (K. pneumoniae; strain T1b, Without Tween80) was 64 mg/L, the MIC (K. pneumoniae; strain T4, With Tween80) was 32 mg/L and the MIC (K. pneumoniae; strain T4, Without Tween80) was 32 mg/L. The MIC (K. pneumoniae; strain T5, With Tween80) was 32 mg/L and the MIC (K. pneumoniae; strain T5, Without Tween80) was 32 mg/L.
